This is an account of results in US12012404B2, “Pyrimidoheterocyclic compounds and application thereof” (D3 BIO (WUXI) CO., LTD., priority 2020, dated 2024).

What all share (format): in vitro ADME
A short description of series [1]: Metabolic stability in hepatocytes, cynomolgus monkeys. On the procedure:
(§1) Purpose of the assay: Metabolic stabilities of assay compounds in hepatocytes of CD-1 mice, SD rats, beagle dogs, cynomolgus monkeys, and human were assayed, respectively.
(§2) Procedure of the assay: Several 96-well sample precipitation plates were prepared and named T0, T15, T30, T60, T90, T120, TO-MC, T120-MC and blank substrates, respectively. The recovery medium and incubation medium were taken out in advance and placed in a 37° C. water bath for pre-heating. Cryopreserved hepatocytes were removed from the liquid nitrogen tank and immediately immersed in a 37° C. water bath (approximately 90 seconds). After the cryopreserved hepatocytes had thawed and loosened, they were poured into a centrifuge tube containing 40 mL of recovery medium, and the tube was gently inverted to allow the cells to be resuspended in the recovery medium. The cells were centrifuged at 100×g at room temperature for 5 min, and the supernatant was removed. The hepatocytes were resuspended in an appropriate volume of incubation medium, and the cell viability was calculated by Trypan Blue staining method. 198 μL of hepatocyte suspension (0.51×10^6 cells/mL) was added to the preheated incubation plate. For the culture medium control group, 198 μL of hepatocyte-free incubation medium was added to T0-MC and T120-MC incubation plate. All incubation plates were pre-incubated in a 37° C. incubator for 10 minutes. Then 2 μL of working solutions of the assay sample and the control compound were added, respectively, and the mixture was mixed well. The incubation plate was immediately put into the shaker in the incubator, and the reaction was initiated while starting the timer. For each time point of each compound, 2 duplicate samples were prepared. The incubation conditions were 37° C., saturated humidity, and 5% CO2. In the assay system, the final concentration of the assay sample was 1 μM, the final concentration of the control sample was 3 μM, the final concentration of hepatocytes was 0.5×10^6 cells/mL, and the final concentration of the total organic solvent was 0.96%, of which the final concentration of DMSO was 0.1%. At the end of the incubation for the corresponding time point, the incubation plate was taken out, and 25 μL of a mixture of compound and control compound with cells was added to the sample plate containing 125 μL of stop solution (200 ng/mL tolbutamide and labetalol in acetonitrile). For the Blank sample plate, 25 μL of hepatocyte-free incubation medium was added directly. After sealing, all sample plates were shaken on a shaker at 600 rpm for 10 minutes, and then centrifuged at 3220×g for 20 minutes. Supernatants of the assay sample and the control sample were diluted with ultrapure water at a ratio of 1:3. All samples were mixed well and analyzed by LC/MS/MS.

A short description of series [2]: Metabolic stability in hepatocytes, human. On the procedure:
as §1, §2

Series [3] can be described thus: In vitro stability in liver microsomes, human. Particulars: 0.5 mg/mL. The procedure: (§3) Purpose of the assay: Metabolic stabilities of the assay compounds in liver microsomes of CD-1 mice, SD rats, beagle dogs, cynomolgus monkeys, and human were assayed, respectively.
(§4) Procedure of the assay: Two 96-well incubation plates were prepared and named T60 incubation plate and NCF60 incubation plate, respectively. 445 μL of microsomal working solutions (liver microsomal protein concentration of 0.56 mg/mL) were added to the T60 incubation plate and the NCF60 incubation plate, respectively, and then the above incubation plates were pre-incubated in a 37° C. water bath for about 10 minutes.
(§5) After the pre-incubation, 5 μL of working solutions of the assay sample or the control compound were added to the T60 incubation plate and the NCF60 incubation plate, respectively, and the mixture was mixed well. 50 μL of potassium phosphate buffer was added to each well of the NCF60 incubation plate to initiate the reaction. 180 μL of stop solution (200 ng/mL tolbutamide and 200 ng/mL labetalol in acetonitrile) and 6 uL of NADPH regeneration system working solution were added to the T0 stop plate, and 54 μL of sample was transferred from T60 incubation plate to T0 stop plate (generation of TO sample). The reaction was initiated by adding 44 μL of NADPH regeneration system working solution to each well of the T60 incubation plate. Only 54 μL of microsome working solution, 6 uL of NADPH regeneration system working solution and 180 μL of stop solution were added to the Blank plate. Therefore, in samples of the assay compound or the control compound, the final reaction concentration of compound, testosterone, diclofenac and propafenone was 1 μM, the concentration of liver microsomes was 0.5 mg/mL, and the final reaction concentrations of DMSO and acetonitrile in the reaction system were 0.01% (v/v) and 0.99% (v/v), respectively.
(§6) After an appropriate time (e.g., 5, 15, 30, 45 and 60 minutes) of incubation, 180 μL of stop solutions (200 ng/mL tolbutamide and 200 ng/mL labetalol in acetonitrile) were added to the sample wells of each stop plate, respectively. 60 μL of sample was removed from the T60 incubation plate to stop the reaction. All sample plates were shaken well and then centrifuged at 3220×g for 20 minutes. Then 80 μL of supernatant was taken out from each well, and diluted in 240 μL of pure water for liquid chromatography-tandem mass spectrometry analysis. All samples were injected and analyzed by liquid chromatography-tandem mass spectrometry.
For orientation: Liver microsomes are vesicles of endoplasmic reticulum, rich in cytochrome P450 enzymes.

Series [4] concerns plasma protein of beagle dogs. The series can be described thus: Protein binding rate by equilibrium dialysis, beagle dogs plasma. To be noted: 2 μM, dialysis 4 hours. On the procedure: Purpose of the assay: Protein binding rate of the assay compounds in plasma of CD-1 mice, SD rats, beagle dogs, cynomolgus monkeys and human was determined by equilibrium dialysis.
Procedure of the assay: Plasma samples with a compound concentration of 2 μM were prepared using plasma of the above five species, placed in a 96-well equilibrium dialysis device, and dialyzed with phosphate buffer solution at 37±1° C. for 4 hours. Warfarin was used as the control compound in this assay. The concentrations of the assay compounds in plasma and dialysis buffer were determined by LC-MS/MS method.
On the technique in general: In equilibrium dialysis free small molecules cross a membrane that holds back macromolecules.

Series [5] is described as follows: In vitro stability in liver microsomes, CD-1 mice. To be noted: CD-1 mice liver microsomes, 0.5 mg/mL. On the procedure: as §3, §4, §5, §6

Usually half-life stands for the time in which the quantity being followed falls by half. Lower therefore signals fast loss.

Take `C=C(F)C(=O)N1CCN(c2nc(OCC3CCCN3C)nc3c2COC(c2c(F)c(N)cc(C)c2C(F)(F)F)C3)CC1CC#N.Cl` (single isomer, unassigned) [Compound 8B hydrochloride]: in series [1] (1 μM), the “CLint(hep)” value is on record as 10.2 μL/min/10^6, the “CLint(liver)” value stood at 36.7 mL/min/kg and the T1/2 came out at 136.1 min. In addition, in series [2] (1 μM), the “CLint(hep)” value is 6.9 μL/min/10^6, the “CLint(liver)” value stood at 19.3 mL/min/kg and the T1/2 was determined as 199.5 min. Also, in series [3] (1 μM), the “CLint(liver)” value stood at 20.7 mL/min/kg, the CLint(mic) worked out at 23 µL/min/mg and the T1/2 came to 60.3 min. The compound also came in with a Protein unbound rate in series [4] of 6.0. Moreover, in series [5] (1 μM), the “CLint(liver)” value is 436.1 mL/min/kg, the CLint(mic) came to 110 µL/min/mg and the T1/2 was 12.6 min.

As to `C=C(F)C(=O)N1CCN(c2nc(OC[C@@]34CCCN3C[C@H](F)C4)nc3c2COC(c2c(F)c(N)cc(C)c2C(F)(F)F)C3)C[C@@H]1CC#N` (some centres unmarked) [Compound 17], the “CLint(hep)” value in series [1] (1 μM) worked out at 51.3 μL/min/10^6; in series [2] (1 μM) it was 13.9 μL/min/10^6. Besides, the half-life at 1 μM in series [1] (cynomolgus monkey, cryopreserved hepatocytes) is 27 min; in series [2] (cryopreserved hepatocytes), 99.5 min; in series [3], 20.4 min; in series [5] (mouse) it was 4.9 min. The CLint scaled at 1 μM was determined as 185 mL/min/kg in series [1] (cynomolgus monkey, cryopreserved hepatocytes, read-out: CLint(liver)); 38.7 mL/min/kg in series [2] (cryopreserved hepatocytes, read-out: CLint(liver)); 61.1 mL/min/kg in series [3]; 1130 mL/min/kg in series [5] (mouse). For the same compound, the CLint(mic) is 67.9 µL/min/mg in series [3] (1 μM) and 285 µL/min/mg in series [5] (1 μM). The same compound registered a Protein unbound rate in series [4] of 3.3.
